{
  "source": "patent US8802597B2",
  "about": "“Herbicidal pyrimidines” (E I du Pont de Nemours and Company, priority 2003, dated 2014)",
  "assay_type_in_all_cases": "in vivo",
  "key": {"wild oat (Avena fatua)": {"system": "wild oat (Avena fatua)", "assay": "Test B postemergence", "in_short": "(§1)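 Visual rating, 0 (no effect) to 100 (complete control) versus controls, taken 13–15 days after treatment in greenhouse. Compounds formulated in non-phytotoxic solvent plus surfactant; pre: sprayed after seeding; post: plants at 1- to 4-leaf stage, 2–18 cm.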"}, "[1]": {"system": "blackgrass (Alopecurus myosuroides)", "assay": "Test B postemergence", "in_short": "as §1"}, "rice (Oryza sativa)": {"system": "rice (Oryza sativa)", "assay": "Test B flooded paddy test", "details": "Flood, 1000 g ai/ha; scale 0 to 100", "description": "(§2) At the same time, plants selected from these crop and weed species and also blackgrass (Alopecurus myosuroides) and wild oat (Avena fatua) were treated with postemergence applications of test chemicals formulated in the same manner. Plants ranged in height from 2 to 18 cm (1- to 4-leaf stage) for postemergence treatments. Plant species in the flooded paddy test consisted of rice (Oryza sativa), umbrella sedge (Cyperus difformis), duck salad (Heteranthera limosa) and barnyardgrass (Echinochloa crus-galli) grown to the 2-leaf stage for testing. Treated plants and controls were maintained in a greenhouse for 13 to 15 days, after which time all species were compared to controls and visually evaluated. Plant response ratings, summarized in Table B, are based on a scale of 0 to 100 where 0 is no effect and 100 is complete control. A dash (-) response means no test result."}, "[2]": {"system": "umbrella sedge (Cyperus difformis)", "assay": "Test B flooded paddy test", "details": "Flood, 1000 g ai/ha; scale 0 to 100", "description": "as §2"}, "[3]": {"system": "barnyardgrass (Echinochloa crus-galli)", "assay": "Test B flooded paddy test", "details": "Flood, 1000 g ai/ha; scale 0 (no effect) to 100 (complete control)", "description": "as §2"}, "[4]": {"system": "duck salad (Heteranthera limosa)", "assay": "Test B flooded paddy test", "details": "Flood, 1000 g ai/ha; scale 0 to 100", "description": "as §2"}, "[5]": {"system": "Surinam grass (Brachiaria decumbens)", "assay": "Test B pre/postemergence", "text": "(§3) Seeds selected from barnyardgrass (Echinochloa crus-galli), Surinam grass (Brachiaria decumbens), cocklebur (Xanthium strumarium), corn (Zea mays), crabgrass (Digitaria sanguinalis), giant foxtail (Setaria faberii), lambsquarters (Chenopodium album), morningglory (Ipomoea coccinea), pigweed (Amaranthus retroflexus), velvetleaf (Abutilon theophrasti), and wheat (Triticum aestivum) were planted and treated preemergence with test chemicals formulated in a non-phytotoxic solvent mixture which included a surfactant.\nas §2"}, "[6]": {"system": "pigweed (Amaranthus retroflexus)", "assay": "Test B pre/postemergence", "text": "as §3, §2"}, "corn (Zea mays)": {"system": "corn (Zea mays)", "assay": "Test B pre/postemergence", "text": "as §3, §2"}, "[7]": {"system": "giant foxtail (Setaria faberii)", "assay": "Test B pre/postemergence", "text": "as §3, §2"}, "[8]": {"system": "morningglory (Ipomoea coccinea)", "assay": "Test B pre/postemergence", "text": "as §3, §2"}, "[9]": {"system": "cocklebur (Xanthium strumarium)", "assay": "Test B pre/postemergence", "text": "as §3, §2"}, "[10]": {"system": "barnyardgrass (Echinochloa crus-galli)", "assay": "Test B pre/postemergence", "text": "as §3, §2"}, "[11]": {"system": "velvetleaf (Abutilon theophrasti)", "assay": "Test B pre/postemergence", "text": "as §3, §2"}, "[12]": {"system": "lambsquarters (Chenopodium album)", "assay": "Test B pre/postemergence", "text": "as §3, §2"}, "[13]": {"system": "crabgrass (Digitaria sanguinalis)", "assay": "Test B pre/postemergence", "text": "as §3, §2"}, "[14]": {"system": "wheat (Triticum aestivum)", "assay": "Test B pre/postemergence", "text": "as §3, §2"}, "[15]": {"details": "125 g ai/ha, scale 0 to 100 (0 no effect, 100 complete control)"}, "[16]": {"details": "Postemergence, 125 g ai/ha, scale 0 to 100 (0 no effect, 100 complete control)"}, "[17]": {"details": "Postemergence, 500 g ai/ha, scale 0 to 100"}, "[18]": {"details": "Preemergence, 125 g ai/ha, scale 0 to 100 (0 no effect, 100 complete control)"}, "[19]": {"details": "Preemergence, 500 g ai/ha, scale 0 to 100 (0 no effect, 100 complete control)"}},
  "data": [
    {"smiles": "COC(OC)c1nc(C2CC2)nc(N)c1F", "note": "[Compound 46]", "values": [
      {"measurement": "Oat, Wild plant response rating", "setting": "wild oat (Avena fatua); [15]", "result": 0},
      {"measurement": "Plant response rating, Oat, Wild", "setting": "wild oat (Avena fatua); 500 g ai/ha, scale 0 to 100", "result": 0},
      {"measurement": "Blackgrass plant response rating", "setting": "[1]; [15]", "result": 0},
      {"measurement": "Plant response rating, Blackgrass", "setting": "[1]; 500 g ai/ha, scale 0 to 100", "result": 10},
      {"measurement": "Plant response rating, Rice", "setting": "rice (Oryza sativa)", "result": 0},
      {"measurement": "Plant response rating, Sedge, Umbrella", "setting": "[2]", "result": 30},
      {"measurement": "Plant response rating, Barnyardgrass", "setting": "[3]", "result": 0},
      {"measurement": "Plant response rating, Ducksalad", "setting": "[4]", "result": 60},
      {"measurement": "Surinam Grass plant response rating", "setting": "[5]; [16]", "result": 0},
      {"measurement": "Plant response rating, Surinam Grass", "setting": "[5]; [17]", "result": 10},
      {"measurement": "Plant response rating, Surinam Grass", "setting": "[5]; [18]", "result": 0},
      {"measurement": "Surinam Grass plant response rating", "setting": "[5]; [19]", "result": 40},
      {"measurement": "Pigweed plant response rating", "setting": "[6]; [16]", "result": 70},
      {"measurement": "Plant response rating, Pigweed", "setting": "[6]; [17]", "result": 80},
      {"measurement": "Plant response rating, Pigweed", "setting": "[6]; [18]", "result": 80},
      {"measurement": "Pigweed plant response rating", "setting": "[6]; [19]", "result": 90},
      {"measurement": "Corn plant response rating", "setting": "corn (Zea mays); [16]", "result": 0},
      {"measurement": "Plant response rating, Corn", "setting": "corn (Zea mays); [17]", "result": 0},
      {"measurement": "Plant response rating, Corn", "setting": "corn (Zea mays); [18]", "result": 0},
      {"measurement": "Corn plant response rating", "setting": "corn (Zea mays); [19]", "result": 0},
      {"measurement": "Foxtail, Giant plant response rating", "setting": "[7]; [16]", "result": 0},
      {"measurement": "Plant response rating, Foxtail, Giant", "setting": "[7]; [17]", "result": 10},
      {"measurement": "Plant response rating, Foxtail, Giant", "setting": "[7]; [18]", "result": 0},
      {"measurement": "Foxtail, Giant plant response rating", "setting": "[7]; [19]", "result": 50},
      {"measurement": "Morningglory plant response rating", "setting": "[8]; [16]", "result": 80},
      {"measurement": "Plant response rating, Morningglory", "setting": "[8]; [17]", "result": 90},
      {"measurement": "Plant response rating, Morningglory", "setting": "[8]; [18]", "result": 50},
      {"measurement": "Morningglory plant response rating", "setting": "[8]; [19]", "result": 90},
      {"measurement": "Cocklebur plant response rating", "setting": "[9]; [16]", "result": 0},
      {"measurement": "Plant response rating, Cocklebur", "setting": "[9]; [17]", "result": 0},
      {"measurement": "Plant response rating, Cocklebur", "setting": "[9]; [18]", "result": 0},
      {"measurement": "Cocklebur plant response rating", "setting": "[9]; [19]", "result": 40},
      {"measurement": "Barnyardgrass plant response rating", "setting": "[10]; [16]", "result": 0},
      {"measurement": "Plant response rating, Barnyardgrass", "setting": "[10]; [17]", "result": 30},
      {"measurement": "Plant response rating, Barnyardgrass", "setting": "[10]; [18]", "result": 0},
      {"measurement": "Barnyardgrass plant response rating", "setting": "[10]; [19]", "result": 0},
      {"measurement": "Velvetleaf plant response rating", "setting": "[11]; [16]", "result": 0},
      {"measurement": "Plant response rating, Velvetleaf", "setting": "[11]; [17]", "result": 0},
      {"measurement": "Plant response rating, Velvetleaf", "setting": "[11]; [18]", "result": 0},
      {"measurement": "Velvetleaf plant response rating", "setting": "[11]; [19]", "result": 20},
      {"measurement": "Lambsquarters plant response rating", "setting": "[12]; [16]", "result": 10},
      {"measurement": "Plant response rating, Lambsquarters", "setting": "[12]; [17]", "result": 30},
      {"measurement": "Plant response rating, Lambsquarters", "setting": "[12]; [18]", "result": 10},
      {"measurement": "Lambsquarters plant response rating", "setting": "[12]; [19]", "result": 60},
      {"measurement": "Crabgrass plant response rating", "setting": "[13]; [16]", "result": 10},
      {"measurement": "Plant response rating, Crabgrass", "setting": "[13]; [17]", "result": 30},
      {"measurement": "Plant response rating, Crabgrass", "setting": "[13]; [18]", "result": 0},
      {"measurement": "Crabgrass plant response rating", "setting": "[13]; [19]", "result": 40},
      {"measurement": "Wheat plant response rating", "setting": "[14]; [16]", "result": 0},
      {"measurement": "Plant response rating, Wheat", "setting": "[14]; [17]", "result": 0},
      {"measurement": "Plant response rating, Wheat", "setting": "[14]; [18]", "result": 0},
      {"measurement": "Plant response rating, Wheat", "setting": "[14]; [19]", "result": 20}
    ]}
  ]
}
